Drawing on PubChem BioAssay AID1259407 (Chemical Carcinogenesis Research Information System (CCRIS), 2018), this text covers mutagenic call for seven molecules.

The subject of the data set is CCRIS mutagenicity, Ames/micronucleus/aberration tests. In words: CCRIS mutagenicity studies.
Where [1] appears, read: Test System: AMES SALMONELLA TYPHIMURIUM, Strain/Indicator: TA97, Metabolic Activation: NONE, Method: PREINCUBATION
Where [2] appears, read: Test System: AMES SALMONELLA TYPHIMURIUM, Strain/Indicator: TA98, Metabolic Activation: NONE, Method: STANDARD PLATE.
Where [3] appears, read: Test System: AMES SALMONELLA TYPHIMURIUM, Strain/Indicator: TA98, Metabolic Activation: RAT, LIVER, S-9, AROCLOR 1254, Method: STANDARD PLATE.
[4] abbreviates: Test System: AMES SALMONELLA TYPHIMURIUM, Strain/Indicator: TA100, Metabolic Activation: NONE, Method: STANDARD PLATE.
The mark [5] stands for this setting: Test System: AMES SALMONELLA TYPHIMURIUM, Strain/Indicator: TA100, Metabolic Activation: RAT, LIVER, S-9, AROCLOR 1254, Method: STANDARD PLATE.
Setting [6] is: Test System: AMES SALMONELLA TYPHIMURIUM, Strain/Indicator: TA1535, Metabolic Activation: NONE, Method: STANDARD PLATE.
The mark [7] stands for this setting: Test System: AMES SALMONELLA TYPHIMURIUM, Strain/Indicator: TA1537, Metabolic Activation: NONE, Method: STANDARD PLATE.
Where [8] appears, read: Test System: AMES SALMONELLA TYPHIMURIUM, Strain/Indicator: TA1538, Metabolic Activation: NONE, Method: STANDARD PLATE.

Active and inactive are the calls of the source. How the calls were made is not given here.

Take `CCCCCCCCCCCCCCCC(=O)OC[C@H](O)[C@H]1OC(=O)C(O)=C1O`: the mutagenic call is, setting by setting: under setting [1], “inactive; negative”; (Test System: AMES SALMONELLA TYPHIMURIUM, Strain/Indicator: TA97, Metabolic Activation: RAT, LIVER, S-9, AROCLOR 1254, Method: PREINCUBATION) “inactive; negative”; under setting [2], “inactive; negative”; under setting [3], “inactive; negative”; under setting [4], “inactive; negative”; under setting [5], “inactive; negative”. Besides, the mutagenic call (Test System: AMES SALMONELLA TYPHIMURIUM, Strain/Indicator: TA102, Metabolic Activation: NONE, Method: PREINCUBATION) was “inactive; negative”; the mutagenic call (Test System: AMES SALMONELLA TYPHIMURIUM, Strain/Indicator: TA102, Metabolic Activation: RAT, LIVER, S-9, AROCLOR 1254, Method: PREINCUBATION) is “inactive; negative”; the mutagenic call under setting [6] is “inactive; negative”; the mutagenic call (Test System: AMES SALMONELLA TYPHIMURIUM, Strain/Indicator: TA1535, Metabolic Activation: RAT, LIVER, S-9, AROCLOR 1254, Method: STANDARD PLATE) was “inactive; negative”; the mutagenic call under setting [7] is “inactive; negative”; the mutagenic call (Test System: AMES SALMONELLA TYPHIMURIUM, Strain/Indicator: TA1537, Metabolic Activation: RAT, LIVER, S-9, AROCLOR 1254, Method: STANDARD PLATE) was “inactive; negative”. In addition, the mutagenic call is “inactive; negative” under setting [8]; “inactive; negative” (Test System: AMES SALMONELLA TYPHIMURIUM, Strain/Indicator: TA1538, Metabolic Activation: RAT, LIVER, S-9, AROCLOR 1254, Method: STANDARD PLATE); “inactive; negative” (Test System: E. COLI, Strain/Indicator: WP2, Metabolic Activation: NONE, Method: STANDARD PLATE); “inactive; negative” (Test System: E. COLI, Strain/Indicator: WP2, Metabolic Activation: RAT, LIVER, S-9, AROCLOR 1254, Method: STANDARD PLATE).
For the molecule `Cc1cccc(N)c1`, the mutagenic call is “inactive; negative” (Test System: AMES SALMONELLA TYPHIMURIUM, Strain/Indicator: TA97, Metabolic Activation: HAMSTER, LIVER, S-9, AROCLOR 1254 (10 OR 30%), Method: PREINCUBATION); “inactive; negative” under setting [1]; “inactive; negative” (Test System: AMES SALMONELLA TYPHIMURIUM, Strain/Indicator: TA97, Metabolic Activation: RAT, LIVER, S-9, AROCLOR 1254 (10 OR 30%), Method: PREINCUBATION); “inactive; negative” (Test System: AMES SALMONELLA TYPHIMURIUM, Strain/Indicator: TA98, Metabolic Activation: HAMSTER, LIVER, S-9, AROCLOR 1254 (10 OR 30%), Method: PREINCUBATION); “inactive; negative” (Test System: AMES SALMONELLA TYPHIMURIUM, Strain/Indicator: TA98, Metabolic Activation: NONE, Method: PREINCUBATION); “inactive; negative” (Test System: AMES SALMONELLA TYPHIMURIUM, Strain/Indicator: TA98, Metabolic Activation: RAT, LIVER, S-9, AROCLOR 1254 (10 OR 30%), Method: PREINCUBATION). For the same molecule, the mutagenic call is “inactive; negative” (Test System: AMES SALMONELLA TYPHIMURIUM, Strain/Indicator: TA100, Metabolic Activation: HAMSTER, LIVER, S-9, AROCLOR 1254 (10 OR 30%), Method: PREINCUBATION); “inactive; negative” (Test System: AMES SALMONELLA TYPHIMURIUM, Strain/Indicator: TA100, Metabolic Activation: NONE, Method: PREINCUBATION); “inactive; negative” (Test System: AMES SALMONELLA TYPHIMURIUM, Strain/Indicator: TA100, Metabolic Activation: RAT, LIVER, S-9, AROCLOR 1254 (10 OR 30%), Method: PREINCUBATION); “inactive; negative” (Test System: AMES SALMONELLA TYPHIMURIUM, Strain/Indicator: TA1535, Metabolic Activation: HAMSTER, LIVER, S-9, AROCLOR 1254 (10 OR 30%), Method: PREINCUBATION); “inactive; negative” (Test System: AMES SALMONELLA TYPHIMURIUM, Strain/Indicator: TA1535, Metabolic Activation: NONE, Method: PREINCUBATION); “inactive; negative” (Test System: AMES SALMONELLA TYPHIMURIUM, Strain/Indicator: TA1535, Metabolic Activation: RAT, LIVER, S-9, AROCLOR 1254 (10 OR 30%), Method: PREINCUBATION). In addition, the mutagenic call is “inactive; negative” (Test System: AMES SALMONELLA TYPHIMURIUM, Strain/Indicator: TA1537, Metabolic Activation: HAMSTER, LIVER, S-9, AROCLOR 1254 (10 OR 30%), Method: PREINCUBATION); “inactive; negative” (Test System: AMES SALMONELLA TYPHIMURIUM, Strain/Indicator: TA1537, Metabolic Activation: NONE, Method: PREINCUBATION); “inactive; negative” (Test System: AMES SALMONELLA TYPHIMURIUM, Strain/Indicator: TA1537, Metabolic Activation: RAT, LIVER, S-9, AROCLOR 1254 (10 OR 30%), Method: PREINCUBATION).
Turning to `[N-]=[N+]=NC[C@@H](CO)Cc1ccccc1`, the mutagenic call (Test System: AMES SALMONELLA TYPHIMURIUM, Strain/Indicator: TA100, Metabolic Activation: RAT, LIVER, S-9, PCB, Method: PREINCUBATION) was “active; positive”.
As for `O=[N+]([O-])c1cc2cccc3c4c(c5cccc1c5c23)CCCC4`, the mutagenic call is “active; positive” (Test System: AMES SALMONELLA TYPHIMURIUM, Strain/Indicator: TA98, Metabolic Activation: NONE', Method: STANDARD PLATE) and “active; positive” under setting [4].
`ClCCNCCCNc1c2ccccc2nc2ccccc12`: the mutagenic call is, setting by setting: under setting [2], “active; positive”; under setting [4], “active; positive”; under setting [6], “active; positive”; (Test System: AMES SALMONELLA TYPHIMURIUM, Strain/Indicator: TA1536, Metabolic Activation: NONE, Method: STANDARD PLATE) “active; positive”; under setting [7], “active; positive”; under setting [8], “active; positive”.
On to `CCCCOCC=O`, for which the mutagenic call reads like this: (Test System: AMES SALMONELLA TYPHIMURIUM, Strain/Indicator: TA97A, Metabolic Activation: NONE, Method: STANDARD PLATE) “inactive; negative”; (Test System: AMES SALMONELLA TYPHIMURIUM, Strain/Indicator: TA97A, Metabolic Activation: RAT, LIVER, S-9, AROCLOR 1254, Method: STANDARD PLATE) “inactive; negative”; under setting [2], “inactive; negative”; under setting [3], “inactive; negative”; under setting [4], “inactive; negative”; under setting [5], “inactive; negative”. The mutagenic call reads like this: (Test System: AMES SALMONELLA TYPHIMURIUM, Strain/Indicator: TA102, Metabolic Activation: NONE, Method: STANDARD PLATE) “inactive; negative”; (Test System: AMES SALMONELLA TYPHIMURIUM, Strain/Indicator: TA102, Metabolic Activation: RAT, LIVER, S-9, AROCLOR 1254, Method: STANDARD PLATE) “inactive; negative”; (Test System: CHINESE HAMSTER OVARY, Strain/Indicator: CHO-AS52/6-THIOGUANINE, Metabolic Activation: NONE) “inactive; negative”; (Test System: CHINESE HAMSTER V-79, Strain/Indicator: V-79 (HPRT)/6-THIOGUANINE, Metabolic Activation: NONE) “active; positive”.
In the case of `O=C(/C=C/c1ccccc1)c1ccc(Br)cc1`, the mutagenic call under setting [2] was “inactive; negative”, the mutagenic call under setting [3] is “inactive; negative”, the mutagenic call under setting [4] is “inactive; negative” and the mutagenic call under setting [5] is “inactive; negative”.
